# According to PubChem BioAssay (NCI):
# Values joined by “and” are separate entries in the source; they are usually repeats but may differ in a detail not shown here. Identical values can stand only once.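 In this assay, cells in 96-well plates receive the compound at five concentrations for 48 hours. Endpoints are linearly interpolated between the surrounding concentrations. GI50 is the concentration that inhibits growth by half. TGI denotes the concentration required for complete inhibition of growth.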
# Legend:
# Experiment in all cases: NCI-60 cell line screen, 48 h
# 786-0 renal = system: 786-0 renal
# A549 NSCLC = system: A549 NSCLC
# ACHN renal = system: ACHN renal
# CAKI-1 renal = system: CAKI-1 renal
# COLO 205 colon = system: COLO 205 colon
# DLD-1 colon = system: DLD-1 colon
# DMS 114 small cell lung = system: DMS 114 small cell lung
# DMS 273 small cell lung = system: DMS 273 small cell lung
# DU-145 prostate = system: DU-145 prostate
# EKVX NSCLC = system: EKVX NSCLC
# HCC-2998 colon = system: HCC-2998 colon
# HCT-116 colon = system: HCT-116 colon
# HCT-15 colon = system: HCT-15 colon
# HL-60(TB) leukemia = system: HL-60(TB) leukemia
# HOP-92 NSCLC = system: HOP-92 NSCLC
# HS 578T breast = system: HS 578T breast
# HT29 colon = system: HT29 colon
# IGROV1 ovarian = system: IGROV1 ovarian
# K-562 leukemia = system: K-562 leukemia
# KM12 colon = system: KM12 colon
# KM20L2 colon = system: KM20L2 colon
# LOX IMVI melanoma = system: LOX IMVI melanoma
# LXFL 529 NSCLC = system: LXFL 529 NSCLC
# M14 melanoma = system: M14 melanoma
# M19-MEL melanoma = system: M19-MEL melanoma
# MALME-3M melanoma = system: MALME-3M melanoma
# MCF7 breast = system: MCF7 breast
# MDA-MB-231 breast = system: MDA-MB-231 breast
# MDA-N = system: MDA-N
# MOLT-4 leukemia = system: MOLT-4 leukemia
# NCI-H226 lung = system: NCI-H226 lung
# NCI-H23 lung = system: NCI-H23 lung
# NCI-H460 lung = system: NCI-H460 lung
# NCI-H522 lung = system: NCI-H522 lung
# NCI/ADR-RES ovarian = system: NCI/ADR-RES ovarian
# OVCAR-4 ovarian = system: OVCAR-4 ovarian
# OVCAR-5 ovarian = system: OVCAR-5 ovarian
# SF-268 CNS = system: SF-268 CNS
# SF-295 CNS = system: SF-295 CNS
# SF-539 CNS = system: SF-539 CNS
# SK-MEL-2 melanoma = system: SK-MEL-2 melanoma
# SK-MEL-28 melanoma = system: SK-MEL-28 melanoma
# SN12C renal = system: SN12C renal
# SNB-19 CNS = system: SNB-19 CNS
# SNB-75 CNS = system: SNB-75 CNS
# SNB-78 CNS = system: SNB-78 CNS
# SR leukemia = system: SR leukemia
# SW-620 colon = system: SW-620 colon
# T-47D breast = system: T-47D breast
# TK-10 renal = system: TK-10 renal
# U251 CNS = system: U251 CNS
# UACC-62 melanoma = system: UACC-62 melanoma
# UO-31 renal = system: UO-31 renal
smiles,measurement,setting,value
COc1cccc2c1C(CO)N1C(C#N)C3CC(C(=O)O)C(C1C2)N3C (centres undefined),GI50,786-0 renal,0.236 µM
same,TGI,786-0 renal,3.8 µM and 0.757 µM
same,GI50,A549 NSCLC,4.74 µM
same,GI50,ACHN renal,0.294 µM
same,GI50,CAKI-1 renal,0.404 µM
same,GI50,COLO 205 colon,0.112 µM
same,TGI,COLO 205 colon,2.66 µM and 1.2 µM
same,TGI,DLD-1 colon,9.07 µM
same,GI50,DMS 114 small cell lung,0.159 µM
same,GI50,DMS 273 small cell lung,0.335 µM
same,TGI,DMS 273 small cell lung,8.25 µM
same,GI50,DU-145 prostate,0.365 µM
same,TGI,DU-145 prostate,> 100 µM
same,GI50,EKVX NSCLC,0.734 µM
same,TGI,EKVX NSCLC,10.6 µM
same,GI50,HCC-2998 colon,3.14 µM
same,TGI,HCC-2998 colon,8.21 µM and 2.78 µM
same,GI50,HCT-116 colon,0.337 µM
same,TGI,HCT-116 colon,5.59 µM
same,GI50,HCT-15 colon,0.38 µM
same,GI50,HL-60(TB) leukemia,0.239 µM
same,TGI,HL-60(TB) leukemia,4.53 µM and 0.811 µM
same,GI50,HOP-92 NSCLC,0.422 µM
same,TGI,HOP-92 NSCLC,7.63 µM and > 18.4 µM
same,GI50,HS 578T breast,0.538 µM
same,TGI,HS 578T breast,3.08 µM
same,TGI,HT29 colon,6.55 µM
same,TGI,IGROV1 ovarian,9.67 µM and 4.64 µM
same,GI50,K-562 leukemia,0.275 µM
same,TGI,K-562 leukemia,> 100 µM
same,GI50,KM12 colon,0.679 µM
same,TGI,KM12 colon,8.3 µM and > 26 µM
same,GI50,KM20L2 colon,0.207 µM
same,GI50,LOX IMVI melanoma,0.254 µM
same,TGI,LXFL 529 NSCLC,6.67 µM
same,GI50,M14 melanoma,0.363 µM
same,TGI,M14 melanoma,6.91 µM and 1.42 µM
same,GI50,M19-MEL melanoma,0.256 µM
same,GI50,MALME-3M melanoma,0.458 µM
same,TGI,MALME-3M melanoma,4.6 µM and 1.23 µM
same,TGI,MCF7 breast,> 44 µM
same,GI50,MDA-MB-231 breast,0.271 µM
same,TGI,MDA-MB-231 breast,0.933 µM and 0.521 µM
same,TGI,MDA-N,0.635 µM and 2.25 µM
same,GI50,MOLT-4 leukemia,0.0934 µM
same,GI50,NCI-H226 lung,2.47 µM and 0.327 µM
same,TGI,NCI-H226 lung,5.38 µM and 1.23 µM
same,GI50,NCI-H23 lung,0.222 µM
same,TGI,NCI-H23 lung,4.42 µM and 0.558 µM
same,GI50,NCI-H460 lung,1.24 µM
same,GI50,NCI-H522 lung,0.238 µM
same,TGI,NCI-H522 lung,0.874 µM and 0.389 µM
same,GI50,NCI/ADR-RES ovarian,0.194 µM
same,TGI,NCI/ADR-RES ovarian,0.549 µM and 1.12 µM
same,GI50,OVCAR-4 ovarian,0.705 µM
same,TGI,OVCAR-4 ovarian,27 µM
same,GI50,OVCAR-5 ovarian,0.183 µM
same,GI50,SF-268 CNS,0.313 µM
same,TGI,SF-268 CNS,8.75 µM and 57.3 µM
same,GI50,SF-295 CNS,0.42 µM
same,TGI,SF-295 CNS,27.2 µM
same,GI50,SF-539 CNS,0.195 µM
same,TGI,SF-539 CNS,3.11 µM and 1.02 µM
same,GI50,SK-MEL-2 melanoma,0.139 µM
same,TGI,SK-MEL-2 melanoma,2.32 µM and 0.305 µM
same,GI50,SK-MEL-28 melanoma,0.391 µM
same,TGI,SK-MEL-28 melanoma,3.83 µM and 1.88 µM
same,GI50,SN12C renal,0.373 µM
same,TGI,SN12C renal,8.34 µM and > 17.8 µM
same,GI50,SNB-19 CNS,0.212 µM
same,TGI,SNB-19 CNS,> 15.5 µM
same,GI50,SNB-75 CNS,0.298 µM
same,TGI,SNB-75 CNS,5.42 µM and 1.99 µM
same,GI50,SNB-78 CNS,0.334 µM
same,TGI,SNB-78 CNS,7.97 µM and 12 µM
same,GI50,SR leukemia,0.0308 µM
same,TGI,SR leukemia,7.2 µM
same,GI50,SW-620 colon,0.467 µM
same,GI50,T-47D breast,0.135 µM
same,TGI,TK-10 renal,9.27 µM
same,GI50,U251 CNS,0.0787 µM
same,GI50,UACC-62 melanoma,0.192 µM
same,TGI,UACC-62 melanoma,2.23 µM and 0.452 µM
same,GI50,UO-31 renal,0.365 µM
same,TGI,UO-31 renal,4.36 µM and 2.46 µM
CCCCCCCCCCCCCCCCCCOP(=O)([O-])OC1CC[N+](C)(C)CC1,GI50,786-0 renal,2.18 µM
same,TGI,786-0 renal,5.95 µM and 8.32 µM
same,GI50,A549 NSCLC,6.98 µM
same,TGI,A549 NSCLC,> 10 µM and 24.6 µM
same,GI50,ACHN renal,6.37 µM
same,TGI,ACHN renal,> 10 µM and 25.8 µM
same,GI50,CAKI-1 renal,2.03 µM
same,TGI,CAKI-1 renal,> 10 µM and 15.6 µM
same,GI50,COLO 205 colon,1.42 µM
same,TGI,COLO 205 colon,9.43 µM and 15.8 µM
same,TGI,DLD-1 colon,22.4 µM
same,TGI,DMS 114 small cell lung,26.5 µM
same,TGI,DMS 273 small cell lung,14.9 µM
same,GI50,DU-145 prostate,> 10 µM
same,TGI,DU-145 prostate,> 10 µM and 38.5 µM
same,GI50,EKVX NSCLC,> 10 µM
same,TGI,EKVX NSCLC,> 10 µM and 26.8 µM
same,TGI,HCC-2998 colon,17.3 µM
same,GI50,HCT-116 colon,5.24 µM
same,TGI,HCT-116 colon,> 10 µM and 20.6 µM
same,TGI,HCT-15 colon,9.86 µM and 8.72 µM
same,GI50,HL-60(TB) leukemia,> 10 µM
same,TGI,HL-60(TB) leukemia,> 10 µM and 6.98 µM
same,GI50,HOP-92 NSCLC,2.1 µM
same,TGI,HOP-92 NSCLC,5.32 µM and 9.79 µM
same,GI50,HS 578T breast,> 10 µM
same,TGI,HS 578T breast,> 10 µM and 27.5 µM
same,GI50,HT29 colon,3.04 µM
same,TGI,HT29 colon,> 10 µM and 14.4 µM
same,GI50,IGROV1 ovarian,1.3 µM
same,TGI,IGROV1 ovarian,4.29 µM and 10.8 µM
same,GI50,K-562 leukemia,3.63 µM
same,TGI,K-562 leukemia,> 10 µM and 39 µM
same,GI50,KM12 colon,1.15 µM
same,TGI,KM12 colon,2.97 µM and 1.46 µM
same,TGI,KM20L2 colon,6.16 µM
same,GI50,LOX IMVI melanoma,3.89 µM
same,TGI,LOX IMVI melanoma,> 10 µM and 22 µM
same,TGI,LXFL 529 NSCLC,16.5 µM
same,GI50,M14 melanoma,1.87 µM
same,TGI,M14 melanoma,4.41 µM and 12.7 µM
same,TGI,M19-MEL melanoma,14.8 µM
same,GI50,MALME-3M melanoma,> 10 µM
same,TGI,MALME-3M melanoma,> 10 µM and 26.8 µM
same,GI50,MCF7 breast,> 10 µM
same,TGI,MCF7 breast,> 10 µM and 34 µM
same,GI50,MDA-MB-231 breast,4.81 µM
same,TGI,MDA-MB-231 breast,> 10 µM and 20.8 µM
same,TGI,MDA-N,26.5 µM
same,GI50,MOLT-4 leukemia,2.15 µM
same,TGI,MOLT-4 leukemia,5.57 µM and 11.3 µM
same,GI50,NCI-H226 lung,> 10 µM
same,TGI,NCI-H226 lung,> 10 µM and 27.1 µM
same,GI50,NCI-H23 lung,> 10 µM
same,TGI,NCI-H23 lung,> 10 µM and 28.5 µM
same,GI50,NCI-H460 lung,2.85 µM
same,TGI,NCI-H460 lung,> 10 µM and 7.65 µM
same,GI50,NCI-H522 lung,1.89 µM
same,TGI,NCI-H522 lung,5.64 µM and 12.2 µM
same,GI50,NCI/ADR-RES ovarian,> 10 µM
same,TGI,NCI/ADR-RES ovarian,> 10 µM and 28 µM
same,TGI,OVCAR-4 ovarian,> 10 µM and 23.5 µM
same,GI50,OVCAR-5 ovarian,2.25 µM
same,TGI,OVCAR-5 ovarian,> 10 µM and 8.82 µM
same,GI50,SF-268 CNS,4.42 µM
same,TGI,SF-268 CNS,> 10 µM and 24.6 µM
same,GI50,SF-295 CNS,3.63 µM
same,TGI,SF-295 CNS,> 10 µM and 18.2 µM
same,GI50,SF-539 CNS,> 10 µM
same,TGI,SF-539 CNS,> 10 µM and 29.7 µM
same,GI50,SK-MEL-2 melanoma,8.48 µM
same,TGI,SK-MEL-2 melanoma,> 10 µM and 30 µM
same,GI50,SK-MEL-28 melanoma,> 10 µM
same,TGI,SK-MEL-28 melanoma,> 10 µM and 34.4 µM
same,GI50,SN12C renal,3.87 µM
same,TGI,SN12C renal,> 10 µM and 15.7 µM
same,GI50,SNB-19 CNS,5.02 µM
same,TGI,SNB-19 CNS,> 10 µM and 23.2 µM
same,GI50,SNB-75 CNS,> 10 µM
same,TGI,SNB-75 CNS,> 10 µM and 20 µM
same,TGI,SNB-78 CNS,46.2 µM
same,GI50,SR leukemia,0.87 µM
same,TGI,SR leukemia,4.2 µM and 5.74 µM
same,TGI,SW-620 colon,> 10 µM and 22.4 µM
same,GI50,T-47D breast,5.08 µM
same,TGI,T-47D breast,> 10 µM and 36.9 µM
same,GI50,TK-10 renal,0.535 µM
same,TGI,TK-10 renal,1.89 µM and 5.34 µM
same,GI50,U251 CNS,4.02 µM
same,TGI,U251 CNS,> 10 µM and 26.1 µM
same,GI50,UACC-62 melanoma,1.17 µM
same,TGI,UACC-62 melanoma,> 10 µM and 22.5 µM
same,GI50,UO-31 renal,4.27 µM
same,TGI,UO-31 renal,> 10 µM and 21.7 µM
